Experiments:
[1] = Stability in aqueous solution at elevated temperature (HPLC residual ratio); format: physicochemical; details: 20 mg/mL at 125 °C in the dark, after 3 h
Experimental: To determine stability, the samples were stored at 125 °C, and the residual ratio was calculated by measuring the remaining compound by HPLC. HPLC mobile phase conditions were as follows: AsA was described previously, 6 and 20 were 40% methanol containing 0.1% formic acid at flow rate of 0.2 mL/min [52, 53].

[2] = Cell viability of B16 melanoma 4A5 cells; format: cell-based, murine; details: mouse, B16 4A5 cells
Experimental: (§1) The effects on theophylline-stimulated melanogenesis and viability of B16 melanoma 4A5 cells were examined according to previously described protocols. Briefly, murine B16 melanoma 4A5 cells were seeded into 48-well plates in DMEM. After 24 h of culture, a test compound and theophylline (1 mM) were added and incubated for 72 h. The melanin content and cell viability were then measured. IC50 values were determined graphically.

B16 melanoma 4A5 cells = test: Theophylline-stimulated melanogenesis inhibition (melanin content); format: cell-based, murine; details: Mus musculus, 72 h; for IC50: theophylline (1 mM)-stimulated B16 melanoma 4A5 cells
Experimental: as §1
Inhibition (%) was calculated using the following formula, where A and B indicate the optical density of the vehicle- and test compound-treated groups, respectively, and C indicates cell viability (%) (see below): Inhibition (%) = [(A − B)/A]/(C/100) × 100.

TRP-2 mRNA = test: Expression of TRP-2 mRNA (qRT-PCR); format: cell-based, murine; details: B16 4A5 cells, theophylline 1 mM, 72 h
Experimental: (§2) The expression of tyrosinase, TRP-1, and TRP-2 mRNA was assessed according to previously reported methods. Briefly, murine B16 melanoma 4A5 cells were seeded into 96-well plates in DMEM. After 24 h of culture, a test compound and theophylline (1 mM) were added and incubated for 72 h. Then, the amount of each mRNA was quantified by quantitative reverse transcription PCR.

TRP-1 mRNA = test: Expression of TRP-1 mRNA (qRT-PCR); format: cell-based, murine; details: 30 µM, B16 4A5 cells, theophylline 1 mM, 72 h
Experimental: as §2

tyrosinase from mushroom = test: Mushroom tyrosinase activity; format: biochemical
Experimental: Tyrosinase activities using L-tyrosine or L-DOPA as a substrate were determined according to the protocols described previously. Briefly, samples, L-tyrosine (2.5 mM, or L-DOPA, 3.0 mM), mushroom tyrosinase (46 units/mL), and phosphate buffer were mixed in a 96-well plate and incubated at 25 °C. (L-tyrosine; 30 min, L-DOPA; 5 min). The absorbance was then measured at 492 nm.

tyrosinase mRNA = test: Expression of tyrosinase mRNA (qRT-PCR); format: cell-based, murine; details: 30 µM, B16 4A5 cells, theophylline 1 mM, 72 h
Experimental: as §2

tyrosinase protein = test: Expression of tyrosinase protein (western blotting); format: cell-based, murine; details: B16 4A5 cells, theophylline 1 mM, 72 h
Experimental: The expression of tyrosinase protein was assessed according to a previously reported method. Briefly, murine B16 melanoma 4A5 cells were seeded into 6-well plates in DMEM. After 24 h of culture, a test compound and theophylline (1 mM) were added and incubated for 72 h. The expression of tyrosinase protein then was measured by western blotting.

[3] = theophylline-stimulated B16 4A5 cells

Residual ratio in aqueous solution [1] [%]	IC50 (B16 melanoma 4A5 cells) [µM]	Inhibition (%) of mushroom tyrosinase (tyrosinase from mushroom; Substrate: L-DOPA, 30 µM) [%]	Inhibition (%) of mushroom tyrosinase (tyrosinase from mushroom; Substrate: L-DOPA, 100 µM) [%]	Inhibition (%) of mushroom tyrosinase (tyrosinase from mushroom; Substrate: L-Tyrosine, 30 µM) [%]	Inhibition (%) of mushroom tyrosinase (tyrosinase from mushroom; Substrate: L-Tyrosine, 100 µM) [%]	Structure (SMILES)	viability at 72 h, 1000 µM [2] [%]	viability at 72 h, 3000 µM [2] [%]	inhibition at 1000 µM (B16 melanoma 4A5 cells; [3]) [%]	inhibition at 3000 µM (B16 melanoma 4A5 cells; [3]) [%]	TRP-2 mRNA/β-actin mRNA (TRP-2 mRNA; 30 µM)	TRP-2 mRNA/β-actin mRNA (TRP-2 mRNA; 100 µM)	TRP-1 mRNA/β-actin mRNA (TRP-1 mRNA)	viability at 72 h, 100 µM ([2]; 100 µM) [%]	viability at 72 h, 300 µM ([2]; 300 µM) [%]	Tyrosinase mRNA/β-actin mRNA (tyrosinase mRNA)	inhibition at 100 µM (B16 melanoma 4A5 cells; 100 µM, theophylline-stimulated B16 4A5 cells) [%]	inhibition at 300 µM (B16 melanoma 4A5 cells; 300 µM, theophylline-stimulated B16 4A5 cells) [%]	expression of tyrosinase protein (in words) (tyrosinase protein)
9	> 3000					O=C1O[C@H]([C@@H](O)CO)C(O)=C1O [AsA, L-ascorbic acid]	104	89.2	-17.4 ± 4	3.8 ± 4.7									
82	117	−5.7 ± 5.1	−2.4 ± 4.2	1.4 ± 4.7	−6.1 ± 0.6	CCCCCCOC1=C(OCC(O)CO)C(=O)O[C@@H]1[C@@H](O)CO (stereo partly shown) [compound 20, 2-O-(2,3-dihydroxypropyl)-3-O-hexyl-AsA]	60.8	44.7	94.9 ± 1.5	80.9 ± 4.1	1.07 ± 0.30	0.88 ± 0.25	0.67 ± 0.12	95.3	83.9	0.72 ± 0.10	43.5 ± 2.6	77 ± 2.1	suppressed tyrosinase protein expression in a concentration-dependent manner
